Our source for the IC50 values is US20230219965A1 (KSQ Therapeutics, Inc., priority 2020, published 2023).

Where only a bound is given, the exact number is not on record here.

Sequence of USP1/UAF1 enzyme (O94782 whole entry): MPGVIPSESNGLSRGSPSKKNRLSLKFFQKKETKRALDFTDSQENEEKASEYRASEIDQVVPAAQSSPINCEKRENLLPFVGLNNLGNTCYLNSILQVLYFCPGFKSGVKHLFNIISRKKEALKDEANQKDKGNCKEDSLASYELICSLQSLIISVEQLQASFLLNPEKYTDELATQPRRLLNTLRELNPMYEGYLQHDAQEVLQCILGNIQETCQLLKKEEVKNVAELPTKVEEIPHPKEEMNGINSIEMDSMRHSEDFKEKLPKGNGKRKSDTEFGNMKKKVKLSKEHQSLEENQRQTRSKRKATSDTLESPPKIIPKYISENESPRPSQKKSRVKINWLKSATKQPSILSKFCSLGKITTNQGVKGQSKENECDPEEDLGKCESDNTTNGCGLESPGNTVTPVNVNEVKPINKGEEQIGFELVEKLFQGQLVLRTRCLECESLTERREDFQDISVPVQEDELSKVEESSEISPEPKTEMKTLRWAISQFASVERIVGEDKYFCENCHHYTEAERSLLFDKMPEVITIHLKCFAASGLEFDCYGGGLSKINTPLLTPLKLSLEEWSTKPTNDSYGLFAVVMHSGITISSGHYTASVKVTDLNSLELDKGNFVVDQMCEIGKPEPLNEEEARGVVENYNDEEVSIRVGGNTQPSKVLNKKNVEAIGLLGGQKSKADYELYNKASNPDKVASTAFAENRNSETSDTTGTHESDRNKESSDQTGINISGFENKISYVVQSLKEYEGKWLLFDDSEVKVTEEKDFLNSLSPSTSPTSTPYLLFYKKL
Sequence of USP1/UAF1 enzyme (Q8TAF3 whole entry partner): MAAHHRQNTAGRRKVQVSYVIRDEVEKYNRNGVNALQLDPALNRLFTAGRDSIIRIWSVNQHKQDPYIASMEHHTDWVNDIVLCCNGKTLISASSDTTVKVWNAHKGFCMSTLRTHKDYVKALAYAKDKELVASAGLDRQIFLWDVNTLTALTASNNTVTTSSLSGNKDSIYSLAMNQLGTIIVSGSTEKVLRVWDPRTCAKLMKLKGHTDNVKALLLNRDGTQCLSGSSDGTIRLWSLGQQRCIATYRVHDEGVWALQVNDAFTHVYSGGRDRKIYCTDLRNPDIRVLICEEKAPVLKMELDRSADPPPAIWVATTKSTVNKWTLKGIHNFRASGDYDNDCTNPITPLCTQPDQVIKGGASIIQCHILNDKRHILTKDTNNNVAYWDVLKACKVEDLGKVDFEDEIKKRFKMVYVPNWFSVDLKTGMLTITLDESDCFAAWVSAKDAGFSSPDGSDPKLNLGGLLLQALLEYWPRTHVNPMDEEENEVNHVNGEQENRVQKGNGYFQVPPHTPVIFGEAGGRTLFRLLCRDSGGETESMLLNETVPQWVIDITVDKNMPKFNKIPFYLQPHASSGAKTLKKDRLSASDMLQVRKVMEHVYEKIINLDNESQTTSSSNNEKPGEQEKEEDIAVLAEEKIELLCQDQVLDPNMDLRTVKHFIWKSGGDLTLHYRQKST

The target in the test is USP1/UAF1 enzyme (Homo sapiens, UniProt O94782). Kind of test: USP1/UAF1 deubiquitination assay (ubiquitin-rhodamine 110 substrate). The class given is biochemical. Conditions: read-out: USP1 IC50 (Ub-Rho). The procedure:
Certain Compounds of the Disclosure were assessed for USP1/UAF1 activity in a Ubiquitin Rhodamine assay modified from those described previously.
Deubiquitinase activity was measured using ubiquitin-rhodamine 110 as a substrate. Cleavage of the amide bond between rhodamine and the c-terminal glycine of ubiquitin yields an increase in fluorescence signal. The assay was conducted in 20 μl total volume of assay buffer (50 mM Tris-HCl, pH 7.8, 0.5 mM EDTA, 0.01% Bovine Serum Albumin, 1 mM DTT, 0.01% Tween-20), and 0.05 nM USP1/UAF1 enzyme. Reaction was initiated by addition of 150 nM Ubiquitin-rhodamine (Boston Biochem) substrate.
Compounds of the Disclosure, dissolved in DMSO were tested in dose response format, beginning at […].
The example compounds listed below were added to enzyme/assay buffer mix and incubated 10 min. Substrate mix was added, and reaction mix was read in kinetic mode for 30 min at Ex480/Em540 and IC50 response curves were plotted.
Data for all assay formats was calculated as percent inhibition compared with control wells. Percent inhibition was calculated using the following equation: % inhibition=100×[1−(X−min)/(max−min)], where X is the raw data readout, min is the average of the no enzyme control wells (n=32), max is the average of the DMSO control well (n=32). IC50 values were calculated using the standard four parameter curve fitting algorithm in either Prism GraphPad (La Jolla, Calif.) software, or Collaborative Drug Discovery (Burlingame, Calif.) CDD Vault. See Chem. Biol. 20(1): 55-62 (Jan. 24, 2013); Bioorg. Med. Chem. Lett. 23(20): 5660-5666 (Oct. 15, 2013).
By IC50 is commonly meant the point on the concentration scale where inhibition reaches its midpoint. In the case of `COc1ncnc(C2CC2)c1-c1nc2n(n1)CCC(=O)N2C(C)c1ccc(-c2nc(C(F)(F)F)cn2C)cc1` (centres unmarked) [Example 378, 2-(4-cyclopropyl-6-methoxypyrimidin-5-yl)-4-(1-(4-(1-methyl-4-(trifluoromethyl)-1H-imidazol-2-yl)phenyl)ethyl)-6,7-dihydro-[1,2,4]triazolo[1,5-a]pyrimidin-5(4H)-one], the IC50 is < 100 nM.
The figure for `Cc1nn(C)c(C)c1-c1ccc(CN2C(=O)CCn3nc(-c4c(Cl)cnn4C(C)C)cc32)cc1Cl` [Example 289] is > 500 nM; for `CNCc1cc(C(F)(F)F)nn1-c1ccc(CN2C(=O)CCn3nc(-c4c(Cl)cnn4C(C)C)cc32)cc1` [Example 224, 2-(4-chloro-1-isopropyl-1H-pyrazol-5-yl)-4-(4-(5-((methylamino)methyl)-3-(trifluoromethyl)-1H-pyrazol-1-yl)benzyl)-6,7-dihydropyrazolo[1,5-α]pyrimidin-5(4H)-one] it is 100 to 500 nM.
The figure for `CCn1nc(C(F)(F)F)nc1-c1ccc(CN2C(=O)CCn3nc(-c4c(OC)ncnc4C4CC4)cc32)cc1` [Example 87] is > 500 nM; for `COc1cc(C(F)(F)F)nn1-c1ccc(CN2C(=O)CCn3nc(-c4c(Cl)cnn4C(C)C)cc32)cn1` [Example 89] it is < 100 nM; for `CCn1cc(C(F)(F)F)nc1-c1ccc(CN2C(=O)CCn3nc(-c4c(C5CC5)cnn4C(C)C)cc32)cc1` [Example 161] it is 100 to 500 nM.
Turning to `Cc1ccnnc1-c1ccc(CN2C(=O)CCn3nc(-c4c(Cl)cnn4C(C)C)cc32)cc1Cl` [Example 278], the IC50 is > 500 nM.
In the case of `CC(CF)n1cc(C(F)(F)F)nc1-c1ccc(CN2C(=O)CCn3nc(-c4c(OC(F)F)ncnc4C4CC4)nc32)cc1` (centres unmarked) [Example 366, 2-(4-cyclopropyl-6-(difluoromethoxy)pyrimidin-5-yl)-4-(4-(1-(1-fluoropropan-2-yl)-4-(trifluoromethyl)-1H-imidazol-2-yl)benzyl)-6,7-dihydro-[1,2,4]triazolo[1,5-a]pyrimidin-5(4H)-one], the IC50 is < 100 nM.
The result for `COc1c(C)ccnc1-c1ccc(CN2C(=O)CCn3nc(-c4c(Cl)cnn4C(C)C)cc32)cc1Cl` [Example 298] reads 100 to 500 nM.
The result for `CC(C)n1cc(F)nc1-c1ccc(CN2C(=O)CCn3nc(-c4c(Cl)cnn4C(C)C)cc32)cc1Cl` [Example 297] reads 100 to 500 nM.
As for `O=C1CCn2nc(-c3c(OC(F)F)ncnc3C3CC3)nc2N1Cc1ccc(-c2nc(C(F)(F)F)cn2CCF)cc1` [Example 367, 2-(4-cyclopropyl-6-(difluoromethoxy)pyrimidin-5-yl)-4-(4-(1-(2-fluoroethyl)-4-(trifluoromethyl)-1H-imidazol-2-yl)benzyl)-6,7-dihydro-[1,2,4]triazolo[1,5-a]pyrimidin-5(4H)-one], the IC50 is < 100 nM.
As to `COc1ncnc(C2CC2)c1-c1cc2n(n1)CCCC2Nc1ccc(-c2nc(C(F)(F)F)cn2C)c(F)c1` (centres unmarked) [Example 388, 2-(4-cyclopropyl-6-methoxypyrimidin-5-yl)-N-(3-fluoro-4-(1-methyl-4-(trifluoromethyl)-1H-imidazol-2-yl)phenyl)-4,5,6,7-tetrahydropyrazolo[1,5-a]pyridin-4-amine], the IC50 is < 100 nM.
The figure for `CCn1cc(C(F)(F)F)nc1-c1ccc(CN2C(=O)CCn3nc(-c4c(Cl)cnn4C(C)CO)cc32)cc1` (stereo not drawn) [Example 227, 2-(4-chloro-1-(1-hydroxypropan-2-yl)-1H-pyrazol-5-yl)-4-(4-(1-ethyl-4-(trifluoromethyl)-1H-imidazol-2-yl)benzyl)-6,7-dihydropyrazolo[1,5-α]pyrimidin-5(4H)-one] is 100 to 500 nM; for `COc1ncnc(C2CC2)c1-c1nc2n(n1)CC(C)C(=O)N2Cc1ccc(-c2nc(C(F)(F)F)cn2C(C)CF)cc1` (centres unmarked) [Example 383, 2-(4-cyclopropyl-6-methoxypyrimidin-5-yl)-4-(4-(1-(1-fluoropropan-2-yl)-4-(trifluoromethyl)-1H-imidazol-2-yl)benzyl)-6-methyl-6,7-dihydro-[1,2,4]triazolo[1,5-a]pyrimidin-5(4H)-one] it is 100 to 500 nM; for `COc1cccnc1-c1ccc(CN2C(=O)CCn3nc(-c4c(OC)ncnc4C4CC4)cc32)cc1F` [Example 317] it is 100 to 500 nM.
The figure for `CCn1cc(C(F)(F)F)nc1-c1ccc(C(C)N2C(=O)C(C)Cn3nc(-c4c(OC)ncnc4C4CC4)nc32)cc1` (centres unmarked) [Example 384, 2-(4-cyclopropyl-6-methoxypyrimidin-5-yl)-4-(1-(4-(1-ethyl-4-(trifluoromethyl)-1H-imidazol-2-yl)phenyl)ethyl)-6-methyl-6,7-dihydro-[1,2,4]triazolo[1,5-a]pyrimidin-5(4H)-one] is < 100 nM; for `COc1ccnc(-c2ccc(CN3C(=O)CCn4nc(-c5c(Cl)cnn5C(C)C)cc43)cc2Cl)n1` [Example 286] it is > 500 nM; for `CCn1cc(C(F)(F)F)nc1-c1ccc([C@@H](C)N2C(=O)CCn3nc(-c4c(C#N)cnn4C(C)C)cc32)cc1F` [Example 326, (R)-5-(4-(1-(4-(1-ethyl-4-(trifluoromethyl)-1H-imidazol-2-yl)-3-fluorophenyl)ethyl)-5-oxo-4,5,6,7-tetrahydropyrazolo[1,5-α]pyrimidin-2-yl)-1-isopropyl-1H-pyrazole-4-carbonitrile] it is 100 to 500 nM.
On to `COCc1cc(C(F)(F)F)nn1-c1ccc(CN2C(=O)CCn3nc(-c4c(OC)ncnc4C4CC4)cc32)cc1` [Example 99], for which the IC50 was 100 to 500 nM.
The result for `CC(C)n1ncc(Cl)c1-c1cc2n(n1)CCC(=O)N2Cc1ccc(-c2ncccc2OC(F)(F)F)c(Cl)c1` [Example 279] reads > 500 nM; that for `CCn1cc(C(F)(F)F)nc1-c1ccc(CN2C(=O)CCn3nc(-c4c(OC)cnn4C(C)C)nc32)cc1` [Example 45], > 500 nM; that for `CCn1cc(C(F)(F)F)nc1-c1ccc(N(C)C2CCCn3nc(-c4c(Cl)cnn4C(C)C)nc32)cc1F` (centres unmarked) [Example 259], 100 to 500 nM.
The figure for `CCn1cc(C(F)(F)F)nc1-c1ccc(CN2C(=O)CCn3nc(-c4c(OC)ncnc4C4CC4)nc32)cc1OC` [Example 185] is 100 to 500 nM.
The result for `CCn1cc(C(F)(F)F)nc1-c1ccc(CN2C(=O)CCn3nc(-c4c(OC)ncnc4C4CC4)cc32)nc1` [Example 137] reads 100 to 500 nM; that for `CCn1cc(C(F)(F)F)nc1-c1ccc(CN2C(=O)CCn3nc(-c4c(OC)ncnc4C4CC4)cc32)cn1` [Example 105], 100 to 500 nM.
Turning to `COc1ncnc(C2CC2)c1-c1cc2n(n1)CCC(=O)N2Cc1ccc(-n2nc(C#N)cc2OC)cc1` [Example 107], the IC50 fell in the range of 100 to 500 nM.
The figure for `COc1ncnc(C2CC2)c1-c1nc2n(Cc3ccc(-c4nc(C(F)(F)F)cn4C)c(F)c3)c(=O)ccn2n1` [Example 386, 2-(4-cyclopropyl-6-methoxypyrimidin-5-yl)-4-(3-fluoro-4-(1-methyl-4-(trifluoromethyl)-1H-imidazol-2-yl)benzyl)-[1,2,4]triazolo[1,5-a]pyrimidin-5(4H)-one] is < 100 nM; for `CCn1nc(C(F)(F)F)nc1-c1ccc(CN2C(=O)CCn3nc(-c4c(Cl)cnn4C(C)C)cc32)cc1` [Example 84] it is 100 to 500 nM.
The result for `COc1ncnc(C2CC2)c1-c1nc2n(n1)CCC(=O)N2C(C)c1ccc(-n2nc(C(F)(F)F)cc2OCC(F)F)cc1` (centres unmarked) [Example 214] reads < 100 nM.
The figure for `CCn1cc(C(F)(F)F)nc1-c1ccc(NC2CCCn3nc(-c4c(Cl)cnn4C(C)C)nc32)cc1` (stereo not drawn) [Example 256, 2-(4-chloro-1-isopropyl-1H-pyrazol-5-yl)-N-(4-(1-ethyl-4-(trifluoromethyl)-1H-imidazol-2-yl)phenyl)-5,6,7,8-tetrahydro-[1,2,4]triazolo[1,5-α]pyridin-8-amine] is 100 to 500 nM; for `COc1cnn(C(C)C)c1-c1cc2n(n1)CCC(=O)N2Cc1ccc(-c2nc(C(F)(F)F)cn2C(C)C)cc1` [Example 152] it is 100 to 500 nM; for `CC(C)n1cc(C(F)(F)F)nc1-c1ccc(Cn2c(=O)ccn3nc(-c4c(OC(F)F)ncnc4C4CC4)nc23)cc1` [Example 344, 2-(4-cyclopropyl-6-(difluoromethoxy)pyrimidin-5-yl)-4-(4-(1-isopropyl-4-(trifluoromethyl)-1H-imidazol-2-yl)benzyl)-[1,2,4]triazolo[1,5-a]pyrimidin-5(4H)-one] it is < 100 nM.
As to `COc1ccnnc1-c1ccc(CN2C(=O)CCn3nc(-c4c(Cl)cnn4C(C)C)cc32)cc1Cl` [Example 293], the half-maximal inhibitory concentration (IC50) was > 500 nM.
The figure for `Cc1cc(C(F)(F)F)n(-c2ccc(CN3C(=O)CCn4nc(-c5c(Cl)cnn5C(C)C)cc43)cc2F)n1` [Example 92] is > 500 nM; for `CCn1cc(C(F)(F)F)nc1-c1ccc(N(C)C2CCCn3nc(-c4c(Cl)cnn4C(C)C)nc32)cc1` (centres unmarked) [Example 260] it is 100 to 500 nM.
For `COc1ncnc(C2CC2)c1-c1cc2n(n1)CCC(=O)N2Cc1ccc(-n2nc(C)cc2C(F)(F)F)c(F)c1` [Example 88], the IC50 is 100 to 500 nM.
The figure for `CC(C)n1ncc(Cl)c1-c1cc2n(n1)CCC(=O)N2Cc1ccc(-c2nccc3c2N(C)CCO3)c(Cl)c1` [Example 299] is > 500 nM.
Regarding `COc1ncnc(C2CC2)c1-c1nc2n(n1)CCC(=O)N2C(C)c1ccc(-c2ncccc2OC(C)C)cc1` (centres unmarked) [Example 220], the IC50 was < 100 nM.
